Measurements published in ChEMBL document CHEMBL5291721, “A preclinical secondary pharmacology resource illuminates target-adverse drug reaction associations of marketed drugs” (Nat Commun, 2023).

What was measured:
Bile salt export pump = Bile salt export pump (Homo sapiens, UniProt O95342); type: functional
Adenosine receptor A2a = Adenosine receptor A2a (Homo sapiens, UniProt P29274)
[1] = molecular target: T1, Alpha-2A adrenergic receptor (Homo sapiens, UniProt P08913); type: functional, cell-based
T1 sequence (P08913 whole entry): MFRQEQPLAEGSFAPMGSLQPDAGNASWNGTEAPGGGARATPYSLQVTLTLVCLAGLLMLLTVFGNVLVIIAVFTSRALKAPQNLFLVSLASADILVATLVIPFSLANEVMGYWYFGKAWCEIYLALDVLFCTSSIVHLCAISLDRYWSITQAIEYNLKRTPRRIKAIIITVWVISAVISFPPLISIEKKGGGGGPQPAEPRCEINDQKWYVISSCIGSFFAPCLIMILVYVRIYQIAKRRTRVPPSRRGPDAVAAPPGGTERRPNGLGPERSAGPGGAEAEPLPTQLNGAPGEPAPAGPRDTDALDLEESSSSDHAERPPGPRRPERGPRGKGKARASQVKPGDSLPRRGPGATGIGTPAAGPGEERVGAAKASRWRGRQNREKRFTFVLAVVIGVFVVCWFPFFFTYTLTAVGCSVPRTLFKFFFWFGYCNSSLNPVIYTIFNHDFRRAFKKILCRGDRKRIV

[2] = molecular target: T1, Alpha-2A adrenergic receptor; type: functional, cell-based; remark: listed apart in the source
[3] = molecular target: Neuronal acetylcholine receptor subunit alpha-4 (Homo sapiens, UniProt P43681)
[4] = molecular target: Gamma-aminobutyric acid receptor subunit alpha-1 (Rattus norvegicus, UniProt P62813); type: functional
[5] = molecular target: Growth hormone secretagogue receptor type 1 (Homo sapiens, UniProt Q92847)
[6] = molecular target: 5-hydroxytryptamine receptor 2B (Homo sapiens, UniProt P41595); type: functional, cell-based
[7] = molecular target: T2, 5-hydroxytryptamine receptor 3A (Homo sapiens, UniProt P46098); type: functional
T2 sequence (P46098 whole entry): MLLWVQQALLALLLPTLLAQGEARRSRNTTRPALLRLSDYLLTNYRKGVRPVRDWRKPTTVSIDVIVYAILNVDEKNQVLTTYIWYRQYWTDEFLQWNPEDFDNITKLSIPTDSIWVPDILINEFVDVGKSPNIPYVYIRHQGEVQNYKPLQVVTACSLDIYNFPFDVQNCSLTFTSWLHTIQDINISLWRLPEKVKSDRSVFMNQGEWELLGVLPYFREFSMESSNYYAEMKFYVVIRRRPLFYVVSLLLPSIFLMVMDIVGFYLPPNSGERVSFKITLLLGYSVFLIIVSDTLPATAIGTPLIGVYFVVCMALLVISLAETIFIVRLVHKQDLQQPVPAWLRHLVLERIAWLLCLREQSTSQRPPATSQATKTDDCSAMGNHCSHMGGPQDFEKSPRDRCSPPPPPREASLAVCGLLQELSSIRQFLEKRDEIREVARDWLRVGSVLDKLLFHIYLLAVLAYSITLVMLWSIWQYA

[8] = molecular target: Voltage-gated inwardly rectifying potassium channel KCNH2 (Homo sapiens, UniProt Q12809); type: functional; conditions: read-out: AC50
Melanocortin receptor 3 = Melanocortin receptor 3 (Homo sapiens, UniProt P41968)
[9] = molecular target: Delta-type opioid receptor (Homo sapiens, UniProt P41143)
[10] = molecular target: 3',5'-cyclic-AMP phosphodiesterase 4D (Homo sapiens, UniProt Q08499); type: functional
[11] = molecular target: T3, Prostaglandin G/H synthase 1 (Rattus norvegicus, UniProt Q63921); type: functional
T3 sequence (Q63921 whole entry): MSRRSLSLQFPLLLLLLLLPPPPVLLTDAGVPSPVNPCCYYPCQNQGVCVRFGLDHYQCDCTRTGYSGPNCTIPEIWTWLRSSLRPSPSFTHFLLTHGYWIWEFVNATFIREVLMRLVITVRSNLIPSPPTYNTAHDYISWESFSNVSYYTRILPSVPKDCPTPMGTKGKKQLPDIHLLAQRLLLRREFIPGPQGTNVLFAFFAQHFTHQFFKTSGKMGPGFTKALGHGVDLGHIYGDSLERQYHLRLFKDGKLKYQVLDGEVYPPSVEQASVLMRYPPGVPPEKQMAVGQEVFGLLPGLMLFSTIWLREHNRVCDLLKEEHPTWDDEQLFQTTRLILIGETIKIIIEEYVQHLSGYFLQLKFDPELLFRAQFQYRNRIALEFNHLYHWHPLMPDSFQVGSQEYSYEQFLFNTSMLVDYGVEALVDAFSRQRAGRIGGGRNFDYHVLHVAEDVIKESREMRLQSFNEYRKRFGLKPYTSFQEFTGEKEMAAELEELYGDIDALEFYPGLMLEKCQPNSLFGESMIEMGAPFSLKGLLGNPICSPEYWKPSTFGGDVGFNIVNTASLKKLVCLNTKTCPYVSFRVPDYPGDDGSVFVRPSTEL

[12] = molecular target: T4, Equilibrative nucleoside transporter 1 (Homo sapiens, UniProt Q99808)
T4 sequence (Q99808 whole entry): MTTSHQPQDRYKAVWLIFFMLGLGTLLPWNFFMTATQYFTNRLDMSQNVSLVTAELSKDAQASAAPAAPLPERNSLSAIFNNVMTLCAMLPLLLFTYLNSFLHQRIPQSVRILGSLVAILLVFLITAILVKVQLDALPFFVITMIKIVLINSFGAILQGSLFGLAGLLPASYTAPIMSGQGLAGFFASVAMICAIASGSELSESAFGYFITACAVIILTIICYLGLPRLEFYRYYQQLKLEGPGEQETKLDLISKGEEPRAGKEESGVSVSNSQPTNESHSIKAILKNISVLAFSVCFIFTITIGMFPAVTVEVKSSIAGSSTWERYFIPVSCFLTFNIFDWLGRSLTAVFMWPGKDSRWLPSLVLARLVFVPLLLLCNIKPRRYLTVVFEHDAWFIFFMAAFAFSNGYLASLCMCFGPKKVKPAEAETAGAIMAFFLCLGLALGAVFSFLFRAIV

D(1A) dopamine receptor = D(1A) dopamine receptor (Homo sapiens, UniProt P21728); type: functional, cell-based
[13] = molecular target: Sodium-dependent dopamine transporter (Homo sapiens, UniProt Q01959)
[14] = molecular target: Sodium-dependent noradrenaline transporter (Homo sapiens, UniProt P23975)
Further: assay procedure not described here.

Chain of Bile salt export pump (O95342 whole entry): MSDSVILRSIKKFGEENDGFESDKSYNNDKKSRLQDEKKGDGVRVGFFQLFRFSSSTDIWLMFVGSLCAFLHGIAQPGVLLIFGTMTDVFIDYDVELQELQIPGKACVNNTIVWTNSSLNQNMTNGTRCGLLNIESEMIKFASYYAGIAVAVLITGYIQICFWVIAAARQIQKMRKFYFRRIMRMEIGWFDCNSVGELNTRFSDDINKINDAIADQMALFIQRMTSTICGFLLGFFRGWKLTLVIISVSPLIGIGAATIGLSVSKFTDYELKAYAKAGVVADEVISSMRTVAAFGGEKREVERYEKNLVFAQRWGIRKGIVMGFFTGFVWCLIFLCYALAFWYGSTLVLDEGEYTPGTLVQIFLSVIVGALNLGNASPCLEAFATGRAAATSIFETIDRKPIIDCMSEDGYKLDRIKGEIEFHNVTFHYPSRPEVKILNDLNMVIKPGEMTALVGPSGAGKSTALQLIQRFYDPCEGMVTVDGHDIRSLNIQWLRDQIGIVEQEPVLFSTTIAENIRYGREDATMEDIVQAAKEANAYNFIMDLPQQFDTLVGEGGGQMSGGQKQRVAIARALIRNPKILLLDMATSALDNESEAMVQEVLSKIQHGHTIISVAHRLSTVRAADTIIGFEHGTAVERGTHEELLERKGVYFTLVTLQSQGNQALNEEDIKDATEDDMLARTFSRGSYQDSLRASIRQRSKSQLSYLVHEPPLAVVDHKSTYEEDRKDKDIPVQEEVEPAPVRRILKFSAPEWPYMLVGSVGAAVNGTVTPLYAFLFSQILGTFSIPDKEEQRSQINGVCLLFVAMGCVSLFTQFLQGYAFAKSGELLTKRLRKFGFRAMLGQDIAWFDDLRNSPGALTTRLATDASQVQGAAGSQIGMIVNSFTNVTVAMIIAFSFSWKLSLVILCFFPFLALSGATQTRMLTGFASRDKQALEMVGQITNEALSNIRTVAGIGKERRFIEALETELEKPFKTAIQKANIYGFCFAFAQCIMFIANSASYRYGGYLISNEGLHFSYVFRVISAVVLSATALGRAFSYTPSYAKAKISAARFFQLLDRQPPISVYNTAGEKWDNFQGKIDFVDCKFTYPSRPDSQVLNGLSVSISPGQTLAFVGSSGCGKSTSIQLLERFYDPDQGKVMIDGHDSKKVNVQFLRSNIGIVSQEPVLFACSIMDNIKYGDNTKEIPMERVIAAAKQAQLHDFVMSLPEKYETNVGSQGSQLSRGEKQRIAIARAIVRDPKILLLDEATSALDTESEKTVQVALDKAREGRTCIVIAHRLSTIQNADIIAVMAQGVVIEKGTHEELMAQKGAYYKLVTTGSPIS
Chain of Neuronal acetylcholine receptor subunit alpha-4 (P43681 whole entry): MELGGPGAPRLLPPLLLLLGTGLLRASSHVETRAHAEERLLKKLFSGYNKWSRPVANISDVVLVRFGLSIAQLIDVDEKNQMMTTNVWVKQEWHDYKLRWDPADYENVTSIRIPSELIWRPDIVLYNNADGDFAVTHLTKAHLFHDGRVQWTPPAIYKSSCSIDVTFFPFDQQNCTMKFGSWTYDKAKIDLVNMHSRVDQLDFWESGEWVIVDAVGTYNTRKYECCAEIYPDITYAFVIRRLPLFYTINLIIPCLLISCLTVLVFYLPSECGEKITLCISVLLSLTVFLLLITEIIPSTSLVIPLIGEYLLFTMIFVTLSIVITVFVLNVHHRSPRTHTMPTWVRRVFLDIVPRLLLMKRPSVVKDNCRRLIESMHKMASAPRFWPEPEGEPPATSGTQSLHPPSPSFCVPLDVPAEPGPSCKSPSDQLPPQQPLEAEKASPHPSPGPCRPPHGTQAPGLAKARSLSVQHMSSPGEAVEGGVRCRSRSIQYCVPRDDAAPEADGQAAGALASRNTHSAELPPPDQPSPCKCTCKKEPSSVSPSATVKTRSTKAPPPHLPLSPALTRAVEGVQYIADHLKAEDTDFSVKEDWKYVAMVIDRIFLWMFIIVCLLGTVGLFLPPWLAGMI
Chain of Growth hormone secretagogue receptor type 1 (Q92847 whole entry): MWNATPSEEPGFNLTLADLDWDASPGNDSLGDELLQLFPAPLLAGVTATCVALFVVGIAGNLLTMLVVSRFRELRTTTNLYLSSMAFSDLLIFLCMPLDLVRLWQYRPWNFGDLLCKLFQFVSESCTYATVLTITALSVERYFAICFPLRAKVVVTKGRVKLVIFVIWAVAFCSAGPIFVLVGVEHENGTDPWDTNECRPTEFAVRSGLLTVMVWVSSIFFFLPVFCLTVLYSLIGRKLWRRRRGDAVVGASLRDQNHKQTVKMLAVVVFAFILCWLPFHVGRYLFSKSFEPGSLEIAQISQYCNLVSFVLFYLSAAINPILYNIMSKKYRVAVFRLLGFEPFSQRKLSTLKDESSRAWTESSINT
Chain of D(1A) dopamine receptor (P21728 whole entry): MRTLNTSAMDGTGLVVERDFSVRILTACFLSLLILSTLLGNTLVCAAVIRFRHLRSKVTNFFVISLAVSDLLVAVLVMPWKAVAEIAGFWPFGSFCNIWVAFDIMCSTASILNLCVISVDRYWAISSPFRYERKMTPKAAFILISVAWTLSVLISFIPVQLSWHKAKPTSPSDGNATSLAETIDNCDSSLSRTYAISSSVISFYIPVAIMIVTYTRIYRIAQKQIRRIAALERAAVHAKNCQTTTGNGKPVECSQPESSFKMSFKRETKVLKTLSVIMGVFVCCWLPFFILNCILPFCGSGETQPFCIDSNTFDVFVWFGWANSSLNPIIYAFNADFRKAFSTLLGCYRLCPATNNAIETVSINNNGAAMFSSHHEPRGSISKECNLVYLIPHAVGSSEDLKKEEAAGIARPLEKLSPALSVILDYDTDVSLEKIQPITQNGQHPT
Chain of Gamma-aminobutyric acid receptor subunit alpha-1 (P62813 whole entry): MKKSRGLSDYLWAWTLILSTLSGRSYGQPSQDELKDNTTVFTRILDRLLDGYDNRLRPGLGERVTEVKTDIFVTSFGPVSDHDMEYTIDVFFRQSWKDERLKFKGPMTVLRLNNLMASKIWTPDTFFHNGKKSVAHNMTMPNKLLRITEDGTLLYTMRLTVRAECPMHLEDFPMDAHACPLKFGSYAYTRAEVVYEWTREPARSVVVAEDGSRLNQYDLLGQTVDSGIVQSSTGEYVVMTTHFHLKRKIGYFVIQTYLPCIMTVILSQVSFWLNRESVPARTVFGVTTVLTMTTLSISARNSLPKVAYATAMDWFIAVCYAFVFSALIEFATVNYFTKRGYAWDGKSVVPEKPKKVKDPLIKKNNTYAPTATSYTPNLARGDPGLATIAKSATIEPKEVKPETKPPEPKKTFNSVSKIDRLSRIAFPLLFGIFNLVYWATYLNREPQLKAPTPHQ
Chain of Melanocortin receptor 3 (P41968 whole entry): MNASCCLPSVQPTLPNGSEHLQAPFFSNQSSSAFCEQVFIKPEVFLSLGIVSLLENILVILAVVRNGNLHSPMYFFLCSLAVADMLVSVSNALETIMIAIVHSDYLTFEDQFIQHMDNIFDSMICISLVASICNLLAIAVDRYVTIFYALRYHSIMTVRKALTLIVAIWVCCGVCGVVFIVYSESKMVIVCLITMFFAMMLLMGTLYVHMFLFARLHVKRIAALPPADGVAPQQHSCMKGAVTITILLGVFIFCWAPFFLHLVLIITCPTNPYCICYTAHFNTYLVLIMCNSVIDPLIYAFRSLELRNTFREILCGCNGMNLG
Chain of Sodium-dependent noradrenaline transporter (P23975 whole entry): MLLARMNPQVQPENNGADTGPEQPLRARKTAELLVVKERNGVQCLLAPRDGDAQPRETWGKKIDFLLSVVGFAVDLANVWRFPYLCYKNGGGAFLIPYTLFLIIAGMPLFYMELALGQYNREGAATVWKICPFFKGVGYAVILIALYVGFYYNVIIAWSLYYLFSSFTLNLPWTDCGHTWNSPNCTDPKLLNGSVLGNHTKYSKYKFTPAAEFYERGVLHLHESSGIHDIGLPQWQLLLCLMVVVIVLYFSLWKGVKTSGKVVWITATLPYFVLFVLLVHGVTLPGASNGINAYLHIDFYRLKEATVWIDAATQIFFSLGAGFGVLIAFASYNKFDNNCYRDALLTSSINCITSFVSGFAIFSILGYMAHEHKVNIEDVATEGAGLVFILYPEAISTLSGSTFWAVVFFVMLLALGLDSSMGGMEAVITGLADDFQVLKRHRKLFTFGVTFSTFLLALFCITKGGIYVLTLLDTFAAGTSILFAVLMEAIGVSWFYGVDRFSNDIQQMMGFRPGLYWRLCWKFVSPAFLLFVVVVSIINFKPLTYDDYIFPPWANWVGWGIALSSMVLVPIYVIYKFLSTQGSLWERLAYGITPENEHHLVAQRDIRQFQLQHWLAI
Chain of 5-hydroxytryptamine receptor 2B (P41595 whole entry): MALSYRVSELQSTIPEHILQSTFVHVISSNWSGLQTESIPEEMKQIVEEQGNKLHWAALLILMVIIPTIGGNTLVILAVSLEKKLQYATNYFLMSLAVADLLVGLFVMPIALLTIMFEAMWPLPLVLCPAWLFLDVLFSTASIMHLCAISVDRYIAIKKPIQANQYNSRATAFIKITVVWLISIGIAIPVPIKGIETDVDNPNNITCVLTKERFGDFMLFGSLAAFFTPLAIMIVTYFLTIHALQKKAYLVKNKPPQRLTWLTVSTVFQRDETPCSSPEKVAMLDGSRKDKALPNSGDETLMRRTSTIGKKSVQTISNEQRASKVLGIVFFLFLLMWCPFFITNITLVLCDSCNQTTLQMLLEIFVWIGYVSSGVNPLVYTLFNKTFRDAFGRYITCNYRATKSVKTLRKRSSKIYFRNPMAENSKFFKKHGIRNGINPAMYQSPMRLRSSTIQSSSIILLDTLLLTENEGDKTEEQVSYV
Chain of Delta-type opioid receptor (P41143 whole entry): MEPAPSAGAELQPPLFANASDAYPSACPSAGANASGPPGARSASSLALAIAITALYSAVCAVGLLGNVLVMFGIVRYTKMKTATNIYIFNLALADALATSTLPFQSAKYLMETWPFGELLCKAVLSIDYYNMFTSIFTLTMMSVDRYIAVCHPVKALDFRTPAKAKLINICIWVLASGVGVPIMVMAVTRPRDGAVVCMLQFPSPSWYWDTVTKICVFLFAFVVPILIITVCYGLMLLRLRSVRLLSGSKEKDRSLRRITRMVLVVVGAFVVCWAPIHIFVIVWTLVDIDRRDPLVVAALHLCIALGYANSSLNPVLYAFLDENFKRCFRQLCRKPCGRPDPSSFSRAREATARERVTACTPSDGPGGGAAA

| Structure (SMILES) | AC50 (Bile salt export pump) | AC50 (Adenosine receptor A2a) | AC50 [1] | AC50 [2] | AC50 [3] | AC50 [4] | AC50 [5] | AC50 [6] | AC50 [7] | AC50 [8] | AC50 (Melanocortin receptor 3) | AC50 [9] | AC50 [10] | AC50 [11] | AC50 [12] | AC50 (D(1A) dopamine receptor) | AC50 [13] | AC50 [14] |
| --- | --- | --- | --- | --- | --- | --- | --- | --- | --- | --- | --- | --- | --- | --- | --- | --- | --- | --- |
| CC(N)Cc1ccccc1 (configuration not stated) [AMPHETAMINE] | > 300 µM | 11 µM | > 30 µM | > 30 µM | > 30 µM | > 30 µM | > 30 µM | > 30 µM | > 30 µM | > 30 µM | > 30 µM | > 30 µM | > 30 µM | > 30 µM | > 30 µM |  |  |  |
| CN1CCCC(n2nc(Cc3ccc(Cl)cc3)c3ccccc3c2=O)CC1 (configuration not stated) [AZELASTINE] | > 100 µM | > 30 µM | > 30 µM | 0.86 µM | 17 µM | > 30 µM | 14 µM |  | 2.4 µM |  | > 30 µM | > 30 µM | > 30 µM | > 30 µM | > 30 µM | > 30 µM | 7.3 µM | 4.7 µM |
| CC(=O)OCC(=O)[C@@]1(O)CC[C@H]2[C@@H]3CCC4=CC(=O)CC[C@]4(C)[C@H]3C(=O)C[C@@]21C [CORTISONE ACETATE] | > 300 µM |  |  |  |  | > 30 µM |  | > 30 µM | > 30 µM |  |  | > 30 µM | > 30 µM |  |  |  |  |  |
| COc1cc2c(cc1OC)C(=O)C(CC1CCN(Cc3ccccc3)CC1)C2 (configuration not stated) [DONEPEZIL] | > 300 µM | > 30 µM | > 10 µM | > 10 µM | > 10 µM | > 10 µM | > 30 µM |  | > 30 µM |  | > 30 µM | > 30 µM | > 30 µM | > 30 µM | > 30 µM | > 10 µM | > 30 µM | 6.1 µM |
| C#C[C@]1(O)CC[C@H]2[C@@H]3CCc4cc(O)ccc4[C@H]3CC[C@@]21C [ETHINYL ESTRADIOL] | 38 µM | > 30 µM | > 10 µM | > 10 µM |  | > 10 µM | > 30 µM | 18 µM | > 30 µM | > 30 µM | > 30 µM | > 30 µM | 16 µM | 24.3 µM | > 30 µM | > 10 µM | 2.81 µM |  |
| NC(N)=Nc1nc(CSCCC(N)=NS(N)(=O)=O)cs1 [FAMOTIDINE] | > 300 µM | > 30 µM | > 10 µM | > 10 µM |  | > 10 µM | > 30 µM | > 10 µM | > 10 µM |  | > 30 µM | > 10 µM | > 10 µM | > 30 µM | > 30 µM | > 10 µM | > 10 µM | > 10 µM |
| CN1CCCC(CN2c3ccccc3Sc3ccccc32)C1 (configuration not stated) [MEPAZINE] | 100 µM |  |  |  |  |  |  |  |  | 3.77 µM |  |  |  |  |  |  |  |  |
| Sc1ncnc2nc[nH]c12 [MERCAPTOPURINE ANHYDROUS] | > 300 µM |  |  |  |  |  |  |  |  | > 30 µM |  |  |  |  |  |  |  |  |
| C[N+]1(C)[C@@H]2C[C@@H](OC(=O)[C@H](CO)c3ccccc3)C[C@H]1[C@@H]1O[C@@H]12 [METHSCOPOLAMINE] | > 300 µM |  |  |  |  |  |  |  |  | > 30 µM |  |  |  |  |  |  |  |  |
| O=C1CC[C@@]2(O)[C@H]3Cc4ccc(O)c5c4[C@@]2(CCN3CC2CC2)[C@H]1O5 [NALTREXONE] | > 300 µM |  |  |  |  |  |  |  |  | > 30 µM |  |  |  |  |  |  |  |  |
| CCc1nn(CCCN2CCN(c3cccc(Cl)c3)CC2)c(=O)n1CCOc1ccccc1 [NEFAZODONE] | 6 µM | > 30 µM |  |  |  | > 10 µM | > 30 µM | 1.1 µM | > 10 µM | 0.89 µM | > 30 µM | > 10 µM | > 10 µM | > 30 µM | 19.2 µM |  |  |  |
| CC(N/C(=N\C#N)Nc1ccncc1)C(C)(C)C (configuration not stated) [PINACIDIL ANHYDROUS] | 290 µM |  |  |  |  |  |  |  |  | > 30 µM |  |  |  |  |  |  |  |  |
| CCc1ccc(CCOc2ccc(CC3SC(=O)NC3=O)cc2)nc1 (configuration not stated) [PIOGLITAZONE] | 0.1 µM | > 30 µM | > 10 µM | > 10 µM |  | > 10 µM | > 30 µM | > 10 µM | > 10 µM | > 30 µM | > 30 µM | > 10 µM | > 10 µM | > 30 µM | > 30 µM | > 10 µM | > 30 µM | > 30 µM |
| CC(O)CO (configuration not stated) [PROPYLENE GLYCOL] | > 300 µM |  |  |  |  |  |  |  |  | > 30 µM |  |  |  |  |  |  |  |  |
| O=C(NC[C@H]1CN(c2ccc(N3CCOCC3=O)cc2)C(=O)O1)c1ccc(Cl)s1 [RIVAROXABAN] | 100 µM |  | > 30 µM | > 30 µM |  | > 30 µM |  | > 30 µM | > 30 µM |  | > 30 µM | > 30 µM | > 30 µM | > 30 µM |  | > 30 µM | > 30 µM | > 30 µM |
| CC(C)OC(=O)[C@H](C)N[P@](=O)(OC[C@H]1O[C@@H](n2ccc(=O)[nH]c2=O)[C@](C)(F)[C@@H]1O)Oc1ccccc1 [SOFOSBUVIR] | 270 µM |  |  |  |  |  |  |  |  | > 30 µM |  |  |  |  |  |  |  |  |
| CNC(=O)c1cc(Oc2ccc(NC(=O)Nc3ccc(Cl)c(C(F)(F)F)c3)cc2)ccn1 [SORAFENIB] | 2 µM | > 30 µM | > 30 µM | > 30 µM | > 30 µM | > 30 µM | > 30 µM |  | > 30 µM | > 30 µM | 23.2 µM | > 30 µM | > 30 µM | > 30 µM | > 30 µM | > 30 µM | 6.85 µM | > 30 µM |
| CC(=O)OC[C@H]1O[C@@H](n2ccc(=O)[nH]c2=O)[C@H](OC(C)=O)[C@@H]1OC(C)=O [URIDINE TRIACETATE] | > 300 µM |  |  |  |  |  |  |  |  | > 30 µM |  |  |  |  |  |  |  |  |
| CCOC(=O)N[C@@H]1CC[C@@H]2[C@@H](C1)C[C@H]1C(=O)O[C@H](C)[C@H]1[C@H]2/C=C/c1ccc(-c2cccc(F)c2)cn1 [VORAPAXAR] | 2.2 µM |  |  |  |  |  |  |  |  | 3.9 µM |  |  |  |  |  |  |  |  |
